# Data published in patent US12303512B2, “Therapeutically active compounds and their methods of use” (Servier Pharmaceuticals LLC, priority 2021, dated 2025).
# Experiment: Absorption, distribution, metabolism and excretion of oral [14C]vorasidenib in humans; metabolite profiling in plasma, urine, feces
# Conditions: human, in vivo
# Experimental: Metabolite profiling and identification of vorasidenib (AG-881) was performed in plasma, urine, and fecal samples collected from five healthy subjects after a single 50-mg (100 μCi) oral dose of [14C]AG-881 and concomitant intravenous microdose of [^13C3 ^15N3]AG-881.
# Plasma samples collected at selected time points from 0 through 336 hour postdose were pooled across subjects to generate 0- to 72 and 96-336-hour area under the concentration-time curve (AUC)-representative samples. Urine and feces samples were pooled by subject to generate individual urine and fecal pools. Plasma, urine, and feces samples were extracted, as appropriate, the extracts were profiled using high performance liquid chromatography (HPLC), and metabolites were identified by liquid chromatography-mass spectrometry (LC-MS and/or LC-MS/MS) analysis and by comparison of retention time with reference standards, when available.
# Due to low radioactivity in samples, plasma metabolite profiling was performed by using accelerator mass spectrometry (AMS). In plasma, AG-881 was accounted for 66.24 and 29.47% of the total radioactivity in the pooled AUC0-72 h and […] plasma, respectively. The most abundant radioactive peak (P7; M458) represented 0.10 and 43.92% of total radioactivity for pooled AUC0-72 and AUC96-336 h plasma, respectively. All other radioactive peaks accounted for less than 6% of the total plasma radioactivity and were not identified.
Compound,"radioactivity recovered in feces, % of the dose","radioactivity recovered in urine, % of the dose",unchanged parent detected in urine
C[C@@H](Nc1nc(N[C@H](C)C(F)(F)F)nc(-c2cccc(S(=O)(=O)O)n2)n1)C(F)(F)F [Compound M460-1],2-5 % of the dose,–,–
C[C@@H](Nc1nc(N[C@H](C)C(F)(F)F)nc(-c2cccc(SCC(N)C(=O)O)n2)n1)C(F)(F)F (some centres unmarked) [Compound M499],2-5 % of the dose,–,–
CS(=O)(=O)c1cccc(-c2nc(N)nc(N)n2)n1 [Compound M266],–,2.54 % of the dose,–
"C[C@@H](Nc1nc(N[C@H](C)C(F)(F)F)nc(-c2cccc(Cl)n2)n1)C(F)(F)F [AG-881, 6-(6-chloropyridin-2-yl)-N2, N4-bis((R)-1,1,1-trifluoropropan-2-yl)-1,3,5-triazine-2,4-diamine, reference compound]",55.5 % of the dose,–,no AG-881 was detected
